Some results are limits rather than exact numbers.

The values that follow come from US20150133512A1, “N-ARYLTRIAZOLE COMPOUNDS AS LPAR ANTAGONISTS” (Hoffmann-La Roche Inc,, priority 2012, published 2015).

Test [1] addresses human recombinant LPA1 Lysophospholipid receptor (Homo sapiens, UniProt Q92633). In words: Calcium flux assay using FLIPR, LPA1 antagonist activity. In kind it is cell-based. The settings on record: for IC50: ChemiScreen Calcium-optimized stable cell line, antagonist mode, inhibition of agonist-induced calcium flux. On the procedure:
(§1) Calcium Flux Assay Using Fluorometric Imaging Plate Reader (FLIPR)
Cell Culture Conditions: The ChemiScreen Calcium-optimized stable cell line containing the human recombinant LPA1 Lysophospholipid receptor was purchased from Chemicon International, Inc./Millipore. The cells were cultured in DMEM-high glucose supplemented with 10% fetal bovine serum, 2 mM glutamine, 100 U/mL penicillin/100 μg/mL streptomycin, 1× non-essential amino acids, 10 mM HEPES and 0.25 mg/mL Geneticin. Cells were harvested with trypsin-EDTA and counted using ViaCount reagent. The cell suspension volume was adjusted to 2.0×10^5 cells/mL with complete growth media. Aliquots of 50 μL were dispensed into 384 well black/clear tissue culture treated plates (BD) and the microplates were placed in a 37° C. incubator overnight. The following day plates were used in the assay.
(§2) Dye Loading and Assay: Loading Buffer (FLIPR Calcium-4, Molecular Devices) was prepared by dissolving the contents of one bottle into 100 mL Hank's Balanced Salt Solution containing 20 mM HEPES and 2.5 mM probenecid. Plates were loaded onto Biotek plate washer and growth media was removed and replaced with 20 μL of Hank's Balanced Salt Solution containing 20 mM HEPES and 2.5 mM probenecid, followed by 25 μL of Loading Buffer. The plates were then incubated for 30 minutes at 37° C.
During the incubation, test compounds were prepared by adding 90 μL of HBSS/20 mM HEPES/0.1% BSA buffer to 2 μL of serially diluted compounds. To prepare serial dilutions, 10 mM stocks of compounds were prepared in 100% DMSO.
After incubation, both the cell and “assay” plates were brought to the FLIPR and 20 μL of the diluted compounds were transferred to the cell plates by the FLIPR. Compound addition was monitored by FLIPR to detect any agonist activity of the compounds. Plates were then incubated for 30 minutes at room temperature protected from light. […] During the assay, fluorescence readings were taken simultaneously from all 384 wells of the cell plate every 1.5 seconds. Five readings were taken to establish a stable baseline, then 20 μL of sample was rapidly (30 μL/sec) and simultaneously added to each well of the cell plate. The fluorescence was continuously monitored before, during and after sample addition for a total elapsed time of 100 seconds. Responses (increase in peak fluorescence) in each well following agonist addition was determined. The initial fluorescence reading from each well, prior to ligand stimulation, was used as zero baseline value for the data from that well. The responses were expressed as % inhibition of the buffer control.

A further test concerns the target T1, LPA3 (Homo sapiens, UniProt Q9UBY5).
T1 sequence (Q9UBY5 1-353): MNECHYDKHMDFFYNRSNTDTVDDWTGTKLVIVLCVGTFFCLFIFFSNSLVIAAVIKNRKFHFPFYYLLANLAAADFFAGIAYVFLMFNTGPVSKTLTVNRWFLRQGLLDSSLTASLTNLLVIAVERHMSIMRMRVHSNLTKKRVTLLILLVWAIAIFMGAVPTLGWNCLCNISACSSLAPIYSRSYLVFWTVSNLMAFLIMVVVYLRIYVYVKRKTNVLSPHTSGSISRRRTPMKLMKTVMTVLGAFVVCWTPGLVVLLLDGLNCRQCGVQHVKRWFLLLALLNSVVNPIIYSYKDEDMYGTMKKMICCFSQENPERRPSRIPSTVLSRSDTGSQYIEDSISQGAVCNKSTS
Put plainly: Calcium flux assay using FLIPR, LPA3 antagonist activity. It is filed as cell-based. The note with it: for IC50: antagonist activity. On the procedure: as §1, §2
During the incubation, test compounds were prepared by adding 90 μL of HBSS/20 mM HEPES/0.1% BSA buffer to 2 μL of serially diluted compounds. To prepare serial dilutions, 10 mM stocks of compounds were prepared in 100% DMSO. The compound dilution plate was set up as follows: well #1 received 29 μL of stock compound and 31 μL DMSO; wells 2-10 received 40 μL of DMSO; mixed and transferred 20 μL of solution from well #1 into well #2; continued with 1:3 serial dilutions out 10 steps; transferred 2 μL of diluted compound into duplicate wells of 384 well “assay plate” and then added the 90 μL of buffer.
After incubation, both the cell and “assay” plates were brought to the FLIPR and 20 μL of the diluted compounds were transferred to the cell plates by the FLIPR. Compound addition was monitored by FLIPR to detect any agonist activity of the compounds. Plates were then incubated for 30 minutes at room temperature protected from light. After the incubation, plates were returned to the FLIPR and 20 μL of 4.5× concentrated agonist was added to the cell plates. During the assay, fluorescence readings were taken simultaneously from all 384 wells of the cell plate every 1.5 seconds. Five readings were taken to establish a stable baseline, then 20 μL of sample was rapidly (30 μL/sec) and simultaneously added to each well of the cell plate. The fluorescence was continuously monitored before, during and after sample addition for a total elapsed time of 100 seconds. Responses (increase in peak fluorescence) in each well following agonist addition was determined. The initial fluorescence reading from each well, prior to ligand stimulation, was used as zero baseline value for the data from that well. The responses were expressed as % inhibition of the buffer control.
Background: Calcium assays in cells follow changes in intracellular calcium, usually with a dye or a luminescent sensor.

Chain of human recombinant LPA1 Lysophospholipid receptor (Q92633 whole entry): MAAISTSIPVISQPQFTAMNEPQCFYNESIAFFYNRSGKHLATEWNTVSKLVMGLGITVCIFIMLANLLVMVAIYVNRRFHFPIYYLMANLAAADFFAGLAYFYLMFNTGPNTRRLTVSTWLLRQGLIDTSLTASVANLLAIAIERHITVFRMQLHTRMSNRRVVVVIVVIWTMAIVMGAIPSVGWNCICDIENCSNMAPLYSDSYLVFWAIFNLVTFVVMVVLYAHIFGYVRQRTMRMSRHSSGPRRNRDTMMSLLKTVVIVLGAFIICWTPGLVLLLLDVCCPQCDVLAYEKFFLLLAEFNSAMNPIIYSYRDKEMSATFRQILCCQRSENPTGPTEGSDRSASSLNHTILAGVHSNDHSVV

As for `CCc1nnn(-c2ccc(-c3ccc(C4(C(=O)O)CC4)cc3)cc2)c1NC(=O)O[C@H](C)c1ccccc1` [Example 17, 1-{4′-[4-Ethyl-5-((R)-1-phenyl-ethoxycarbonylamino)-[1,2,3]triazol-1-yl]-biphenyl-4-yl}-cyclopropanecarboxylic acid], the IC50 in test [1] is 0.043 µM; on LPA3 it was 21.7 µM. Also, the inhibition at 30 µM on LPA3 was determined as 63.7%.

For the compound `CCc1nnn(-c2ccc(-c3ccc(CC(=O)O)cc3)cc2)c1NC(=O)O[C@H](C)c1ccccc1` [Example 18, {4′-[4-Ethyl-5-((R)-1-phenyl-ethoxycarbonylamino)-[1,2,3]triazol-1-yl]-biphenyl-4-yl}-acetic acid], in test [1], the inhibition at 30 µM was found to be 79.8% and the half-maximal inhibitory concentration (IC50) is 1.23 µM. Moreover, on LPA3, the IC50 is greater than 30 µM.

Take `CCc1nnn(-c2ccc(-c3ccc(C4(C(=O)O)CC4)cc3)cc2)c1NC(=O)O[C@H](C)c1cccc(C(F)(F)F)c1` [Example 19, 1-(4′-{4-Ethyl-5-[(R)-1-(3-trifluoromethyl-phenyl)-ethoxycarbonylamino]-[1,2,3]triazol-1-yl}-biphenyl-4-yl)-cyclopropanecarboxylic acid]: the IC50 in test [1] turned out to be 0.412 µM; on LPA3 it was 4.82 µM.

On to `CCc1nnn(-c2ccc(-c3ccc(CC(=O)O)cc3)cc2)c1NC(=O)O[C@H](C)c1cccc(C(F)(F)F)c1` [Example 20], for which, in test [1], the inhibition at 30 µM is 58.3% and the IC50 is 21.2 µM. Besides, at LPA3, the inhibition at 30 µM amounted to 72.5% and the IC50 worked out at 14.3 µM.

Consider `C[C@@H](OC(=O)Nc1cnnn1-c1ccc(-c2ccc(C3(C(=O)O)CC3)cc2)cc1)c1ccccc1` [Example 21, 1-{4′-[5-((R)-1-Phenyl-ethoxycarbonylamino)-[1,2,3]triazol-1-yl]-biphenyl-4-yl}-cyclopropanecarboxylic acid], for which, in test [1], the 50% inhibitory concentration (IC50) was found to be 0.036 µM. Moreover, on LPA3, the inhibition at 30 µM amounted to 22% and the half-maximal inhibitory concentration (IC50) is greater than 30 µM.

Regarding `C[C@@H](OC(=O)Nc1cnnn1-c1ccc(-c2ccc(CC(=O)O)cc2)cc1)c1ccccc1` [Example 22, {4′-[5-((R)-1-Phenyl-ethoxycarbonylamino)-[1,2,3]triazol-1-yl]-biphenyl-4-yl}-acetic acid], the half-maximal inhibitory concentration (IC50) (in test [1]; on LPA3) was greater than 30 µM throughout.

In the case of `Cc1nnn(-c2ccc(-c3ccc(C(C)(C)C(=O)O)cc3)cc2)c1NC(=O)O[C@H](C)c1ccccc1` [Example 23, 2-Methyl-2-{4′-[4-methyl-5-((R)-1-phenyl-ethoxycarbonylamino)-[1,2,3]triazol-1-yl]-biphenyl-4-yl}-propionic acid], in test [1], the inhibition at 30 µM turned out to be 80.9% and the IC50 is 0.796 µM. Besides, on LPA3, the IC50 was greater than 30 µM.

As to `Cc1nnn(-c2ccc(-c3cccc(C4(C(=O)O)CC4)c3)cc2)c1NC(=O)O[C@H](C)c1ccccc1` [Example 24, (R)-1-(4′-(4-Methyl-5-((1-phenylethoxy)carbonylamino)-1H-1,2,3-triazol-1-yl)biphenyl-3-yl)cyclopropanecarboxylic acid], the IC50 (in test [1]; at LPA3) was greater than 30 µM throughout.

As to `Cc1nnn(-c2cccc(-c3ccc(C4(C(=O)O)CC4)cc3)c2)c1NC(=O)O[C@H](C)c1ccccc1` [Example 25, 1-{3′-[4-Methyl-5-((R)-1-phenyl-ethoxycarbonylamino)-[1,2,3]triazol-1-yl]-biphenyl-4-yl}-cyclopropanecarboxylic acid], the IC50 (in test [1]; on LPA3) was greater than 30 µM in each case.

In the case of `Cc1nnn(-c2cccc(-c3ccc(CC(=O)O)cc3)c2)c1NC(=O)O[C@H](C)c1ccccc1` [Example 26, {3′-[4-Methyl-5-((R)-1-phenyl-ethoxycarbonylamino)-[1,2,3]triazol-1-yl]-biphenyl-4-yl}-acetic acid], the IC50 (in test [1]; at LPA3) was greater than 30 µM throughout.

With `Cc1nnn(-c2ccc(-c3ccccc3)cc2)c1NC(=O)O[C@H](C)c1ccccc1` [Example 27, (3-Biphenyl-4-yl-5-methyl-3H-[1,2,3]triazol-4-yl)-carbamic acid (R)-1-phenyl-ethyl ester], the concentration for half-maximal inhibition (IC50) (in test [1]; on LPA3) was greater than 30 µM throughout.

As for `Cc1nnn(-c2ccc(-c3ccc(C#N)cc3)cc2)c1NC(=O)O[C@H](C)c1ccccc1` [Example 28, [3-(4′-Cyano-biphenyl-4-yl)-5-methyl-3H-[1,2,3]triazol-4-yl]-carbamic acid (R)-1-phenyl-ethyl ester], the IC50 (in test [1]; at LPA3) was greater than 30 µM throughout.

As to `Cc1nnn(-c2ccc(-c3ccc(C4(C(=O)NS(C)(=O)=O)CC4)cc3)cc2)c1NC(=O)O[C@H](C)c1ccccc1` [Example 30, {3-[4′-(1-Methanesulfonylaminocarbonyl-cyclopropyl)-biphenyl-4-yl]-5-methyl-3H[1,2,3]triazol-4-yl}-carbamic acid (R)-1-phenyl-ethyl ester], the half-maximal inhibitory concentration (IC50) in test [1] was 0.033 µM; at LPA3, greater than 30 µM.

Take `C[C@@H](OC(=O)Nc1nncn1-c1ccc(-c2ccc(C3(C(=O)O)CC3)cc2)cc1)c1ccccc1` [Example 31, 1-{4′-[3-((R)-1-Phenyl-ethoxycarbonylamino)-[1,2,4]triazol-4-yl]-biphenyl-4-yl}-cyclopropanecarboxylic acid]: in test [1], the inhibition at 30 µM stood at 11% and the 50% inhibitory concentration (IC50) was greater than 30 µM. The IC50 at LPA3 is greater than 30 µM.

For `C=CCC(C(=O)O)c1ccc(-c2ccc(-n3nnc(C)c3NC(=O)O[C@H](C)c3ccccc3)cc2)cc1` (stereo partly drawn) [Example 33, (R)-2-{4′-[4-Methyl-5-(-1-phenylethoxycarbonylamino)-[1,2,3]triazol-1-yl]-biphenyl-4-yl}-pent-4-enoic acid], the half-maximal inhibitory concentration (IC50) in test [1] is 0.088 µM; on LPA3, greater than 30 µM.

Turning to `Cc1nnn(-c2ccc(C3CCC(CC(=O)O)CC3)cc2)c1NC(=O)O[C@H](C)c1ccccc1` (stereo partly drawn) [Example 34, (R)-2-(4-(4-(4-Methyl-5-((1-phenylethoxy)carbonylamino)-1H-1,2,3-triazol-1-yl)phenyl)cyclohexyl)acetic acid], the IC50 in test [1] is 9.48 µM; on LPA3 it was greater than 30 µM.

On to `Cc1nnn(-c2ccc(-c3ccc(C4(C(=O)NS(C)(=O)=O)CC4)cc3)cc2)c1NC(=O)O[C@H](C)c1cccc(C(F)(F)F)c1` [Example 35, {3-[4′-(1-Methanesulfonylaminocarbonyl-cyclopropyl)-biphenyl-4-yl]-5-methyl-3H[1,2,3]triazol-4-yl}-carbamic acid (R)-1-(3-trifluoromethyl-phenyl)-ethyl ester], for which the half-inhibitory concentration (IC50) in test [1] was found to be 4.53 µM; at LPA3, 5.74 µM.

Broadly, the IC50 is the point on the concentration scale where inhibition reaches its midpoint. Broadly, the inhibition is the relative decrease from the control value, in per cent.
